Reference: PMC8619673 (Cells, 2021)

Legend:
in vitro [1] = conditions: for Papp at 18 h, 1 μM: PAMPA
Experimental: PAMPA was used to predict the penetration of the tested compounds across the BBB. […] The filter PVDF membrane (pore size 0.45 μm; Millipore) was coated with 4 μL of porcine polar brain lipid (20 mg/mL; Avanti Polar Lipids, Alabaster, AL, USA) in dodecane and the acceptor well filled with 200 μL of 5% DMSO in PBS. The filter plate was carefully placed on the donor plate to form a sandwich plate at room temperature for 18 h. After the permeation time, the filter and donor plates were separated. The concentration of the tested compound in the donor and acceptor wells was measured by an AB Sciex QTrap 5500 mass spectrometer (Applied Biosystems) linked to a 1200 HPLC system (Agilent Technologies, Palo Alto, CA, USA). The concentrations of the QC compounds were determined by a Tecan Infinite M200 Pro microplate reader (Switzerland). The effective permeability coefficient (Pe) was calculated as described. Each compound was tested in triplicate.

TRKB = assay: Western blot, TRKB and p-TRKB; format: cell-based, Human; conditions: 5 µM
Experimental: (§1) Cellular proteins were prepared using a lysis buffer containing NaCl (150 mM), ethylene diamine tetraacetic acid (EDTA, 1 mM, pH8.0), Tris-HCl (50 mM, pH8.0), ethylene glycol tetraacetic acid (EGTA, 1 mM, pH8.0), sodium dodecyl sulfate (SDS, 0.1%), sodium deoxycholate (SD, 0.5%), Triton X-100 (1%), and protease (Sigma-Aldrich), and phosphatase (Abcam, Cambridge, MA, USA) inhibitor cocktails. After quantitation by protein assay kit (Bio-Rad, Hercules, CA, USA), 20 µg proteins were separated by SDS-polyacrylamide (10%) gel electrophoresis and transferred to polyvinylidene difluoride (PVDF) membranes (Sigma-Aldrich) using a Mini Trans-Blot cell (Bio-Rad). After blocking, the membrane was probed with anti-TRKB, anti-p-TRKB (Y516), anti-p-TRKB (Y817) (1:500; Cell Signaling, Danvers, MA, USA), anti-ERK, anti-p-ERK (T202/Y204) (1:1000; Cell Signaling), anti-AKT, anti-p-AKT (S473) (1:1000; Cell Signaling), anti-CREB, anti-p-CREB (S133) (1:1000; Millipore, Billerica, MA, USA), anti-BDNF, anti-BCL2 (1:500; Santa Cruz Biotechnology, Santa Cruz, CA, USA), anti-BAX (1:1000; Cell Signaling), anti-β-tubulin (1:500; Sigma-Aldrich), or anti-GAPDH (1:1000, MDBio, Taipei, Taiwan) antibody. The immune complexes were detected using goat anti-mouse or goat anti-rabbit IgG antibody conjugated with horseradish peroxidase (1:5000; GeneTex, Irvine, CA, USA) and chemiluminescent substrate (Millipore).
(§2) Lentiviral short hairpin RNA (shRNA) targeting TRKB (TRCN0000002243, TRCN0000002245, and TRCN0000002246) and a negative-scrambled control (TRC2.Void) were obtained from the National RNAi Core Facility, IMB/GRC, Academia Sinica (Taipei, Taiwan). As described, cells were plated on 6- or 24-well plates, with retinoic acid added on day 1. Cells were infected with lentivirus (multiplicity of infection, 3 for each shRNA), with polybrene (8 µg/mL; Sigma-Aldrich) on the next day. Cells were pretreated with tested compounds (5 µM) for 8 h after changing medium, followed by doxycycline on day 3. Cells were collected for further analysis on day 9. The hairpin sequences of targeting shRNA were below: • TRCN0000002243: 5’-[…]ctcgag[…]-3’ • TRCN0000002245: 5’-[…]ctcgagATGTT-[…]-3’ • TRCN0000002246: 5’-[…]ctcgag[…]-3’ • TRC2.Void: 5’-[…]ctcgag[…]-3’

CREB = assay: Western blot, p-CREB; format: cell-based, Human; conditions: 5 µM; induced untreated 81%
Experimental: as §1

AKT = assay: Western blot, p-AKT; format: cell-based, Human; conditions: 5 µM; induced untreated 81%
Experimental: as §1

BCL2 = assay: Western blot, BCL2; format: cell-based, Human; conditions: 5 µM; induced untreated 72%
Experimental: as §1

ERK = assay: Western blot, p-ERK; format: cell-based, Human; conditions: 5 µM; induced untreated 79%
Experimental: as §1

BAX = assay: Western blot, BAX; format: cell-based, Human; conditions: 5 µM; induced untreated 182%
Experimental: as §1

Aβ-GFP SH-SY5Y cells = assay: Neurite outgrowth analysis; format: cell-based, Human; conditions: 5 µM
Experimental: Aβ-GFP SH-SY5Y cells (6 × 10^4 cells) were seeded on a 24-well plate with retinoic acid (10 µM) on day 1. Tested coumarins (5 µM) and doxycycline (5 μg/mL) were added on day 2, as described. On day 8, the cells were washed with phosphate-buffered saline (PBS) twice and fixed in 4% paraformaldehyde at 4 °C for 15 min. Cells were permeabilized with Triton X-100 (0.1%) for 10 min, blocked with bovine serum albumin (3%) for 20 min, and stained with anti-neuronal TUBB3 antibody (1:1000; Covance, Princeton, NJ, USA) at 4 °C overnight. The next day, cells were washed with PBS twice and stained by a secondary donkey anti-rabbit Alexa Fluor® 555 antibody (1:1000; Thermo Fisher Scientific) and 4′,6-diamidino-2-phenylindole (DAPI; 0.1 µg/mL; Sigma-Aldrich) at room temperature for 1 h. Neuronal images from at least 60 individual fields (150–250 neurons per field) per experiment were captured at excitation 531/40 nm and emission 593/40 nm wavelengths using an ImageXpress micro confocal high-content imaging system (Molecular Devices). Neurite total length (μm) and numbers of process (the number of primary neurites originated from the cell body of a neuron) and branch (the number of secondary neurites extended from primary neurites) were analyzed using a MetaXpress neurite outgrowth application module (Molecular Devices). For each sample, around 6000 cells were analyzed in each of three independent experiments.
as §2

BDNF = assay: Western blot, BDNF; format: cell-based, Human; conditions: 5 µM
Experimental: as §1

Aβ42 peptide = biological target: T1, Aβ42 peptide (Homo sapiens, UniProt P05067); assay: Thioflavin T aggregation assay; format: biochemical; conditions: for Aβ aggregation inhibition (in words): compound 20 μM, thioflavin T assay
T1 construct: Aβ42 peptide (10 μM; Kelowna Int’l Scientific Inc., New Taipei City, Taiwan); purchased Kelowna Int’l Scientific Inc., New Taipei City, Taiwan
Experimental: To form Aβ aggregation, Aβ42 peptide (10 μM; Kelowna Int’l Scientific Inc., New Taipei City, Taiwan) was incubated with tested compounds (5–20 μM) in 150 mM NaCl and 20 mM Tris-HCl (pH8.0) at 37 °C for 48 h. Thioflavin T (10 μM; Sigma-Aldrich) was added to the Aβ mixture and incubated at room temperature for 5 min. The fluorescence intensity was recorded at 420 nm excitation and 485 nm emission by an FLx800 microplate reader (Bio-Tek, Winooski, VT, USA). Half maximal effective concentration (EC50) was estimated by a method of interpolation.

in vitro [2] = format: cell-based; conditions: human
Experimental: To induce neuronal differentiation, 2 × 10^4 Aβ-GFP SH-SY5Y cells were seeded on a 96-well plate with retinoic acid (10 µM; Sigma-Aldrich). Cells were pretreated with tested compounds (0.2–5 µM) on day 2 for 8 h and then with doxycycline (5 μg/mL) to induce Aβ-GFP expression. Medium containing retinoic acid compound and doxycycline was refreshed every 2 days for 6 days. Then, cells were stained with Hoechst 33342 (0.1 µg/mL; Sigma-Aldrich) at 37 °C for 30 min. Cell images were recorded at 482/35 nm excitation and 536/40 nm emission wavelengths (ImageXpres Micro Confocal High-Content Imaging System; Molecular Devices, Sunnyvale, CA, USA), and analyzed by MetaXpress (Molecular Devices).

T1 sequence (P05067 672-713 limits assumed): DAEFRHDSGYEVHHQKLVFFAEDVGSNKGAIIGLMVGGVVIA

Molecule: lucifer yellow
- Penetration of integrity marker (in words) (in vitro [1]; PAMPA-BBB, indicates good membrane integrity): undetectable
- % Transport (in vitro [1]; PAMPA-BBB, integrity marker): 0.00 (% Transport)

Molecule: O=c1cc(-c2ccccc2)oc2c(O)c(O)ccc12 [7,8-DHF, reference compound]
- p-TRKB (Y516) protein level relative to uninduced cells (100%) (TRKB; induced untreated 40%): 92–100%
- p-TRKB (Y817) protein level relative to uninduced cells (100%) (TRKB; induced untreated 71%): 94–108%
- TRKB expression relative to uninduced cells (100%) (TRKB; scrambled shRNA-infected Aβ-expressing cells, untreated 80%): 77–81%
- p-CREB (S133) protein level relative to uninduced cells (100%) (CREB): 98–101%
- p-AKT (S473) protein level relative to uninduced cells (100%) (AKT): 91–110%
- BCL2 protein level relative to uninduced cells (100%) (BCL2): 104–116%
- p-ERK (T202/Y204) protein level relative to uninduced cells (100%) (ERK): 95–107%
- BAX protein level relative to uninduced cells (100%) (BAX): 126%
- Neurite process number (Aβ-GFP SH-SY5Y cells; TRKB shRNA-infected cells, untreated 2.9): 3.5
- Neurite branch number (Aβ-GFP SH-SY5Y cells; scrambled shRNA-infected cells, untreated 2.4): 3.0–3.1
- Neurite process number (Aβ-GFP SH-SY5Y cells; scrambled shRNA-infected cells, untreated 3.5): 3.9–4.0
- Neurite length (Aβ-GFP SH-SY5Y cells; scrambled shRNA-infected cells, untreated 25.3): 30.7–30.9 µm
- BDNF 14 kDa protein level relative to uninduced cells (100%) (BDNF; induced untreated 42%): 124–140%
- BDNF 32 kDa protein level relative to uninduced cells (100%) (BDNF; induced untreated 88%): 113–119%
- BBB Permeability Classification (in vitro [1]; PAMPA-BBB): High (Pe > 4 × 10^−6 cm/s (high))
- Measured Pe (effective permeability) (in vitro [1]; PAMPA-BBB, room temperature 18 h, triplicate): 6.32 ± 1.35 10^−6 cm/s

Molecule: COc1cc(/C=C/C(=O)CC(=O)/C=C/c2ccc(O)c(OC)c2)ccc1O [curcumin, Curcumin, reference compound]
- Thioflavin T fluorescence (Aβ aggregation) (Aβ42 peptide; compound 20 µM, Aβ42 10 μM, 37 °C 2 days, 621 AU without compound, 151 AU without incubation): 339 AU
- Neurite branch number (Aβ-GFP SH-SY5Y cells; induced untreated 1.8, uninduced 2.8): 2.4–2.5
- Neurite process number (Aβ-GFP SH-SY5Y cells; induced untreated 3.3, uninduced 4.4): 4.2–4.3
- Neurite total length (Aβ-GFP SH-SY5Y cells; induced untreated 23.9, uninduced 31.2): 29.1–29.3 μm
- viability at 6 days, 10 µM (in vitro [2]): < 80%

Molecule: O=C(c1ccc(Cl)cc1)c1c(O)c2ccccc2oc1=O [ZN010, 3-(4-chlorobenzoyl)-4-hydroxy-2H-chromen-2-one]
- Aβ aggregation inhibition (in words) (Aβ42 peptide): did not inhibit Aβ aggregation

Molecule: NC(=O)N1c2ccccc2C=Cc2ccccc21 [Carbamazepine, carbamazepine]
- Papp at 18 h, 1 μM (in vitro [1]; BBB Permeability Classification): > 4 ×10⁻⁶ cm/s
- Papp at 18 h, 1 μM (in vitro [1]; Measured Pe (effective permeability)): 9.85 ± 0.6 ×10⁻⁶ cm/s

Molecule: CC(Oc1ccc2cc(C(=O)c3ccccc3)c(=O)oc2c1)C(=O)O (stereo not shown) [ZN009, 2-((3-benzoyl-2-oxo-2H-chromen-7-yl)oxy)propanoic acid]
- Aβ aggregation inhibition (in words) (Aβ42 peptide): did not inhibit Aβ aggregation

Molecule: COc1ccc(C(=O)c2cc3ccc(O)cc3oc2=O)cc1 [ZN011, 7-hydroxy-3-(4-methoxybenzoyl)-2H-chromen-2-one]
- Aβ aggregation inhibition (in words) (Aβ42 peptide): did not inhibit Aβ aggregation
